Assay results as given in EP3833345B1, “SMALL MOLECULE-INHIBITORS OF 6-PHOSPHOFRUCTO-1-KINASE FOR REDUCING LACTATE GENERATION BY CANCER CELLS” (Kemijski Institut, priority 2018, dated 2020).

Experiments:
Type in all cases: cell-based
Caco-2 cells [1] = assay: lactate excretion by Caco-2 cells; conditions: single addition, different concentrations (20-80 µM)
Method: Preliminary in vivo tests were run by measuring lactate production by three different tumorigenic cell lines. […] For the experiment, the following tumorigenic cells lines originating from different tumours were tested: Caco-2 cells (Figure 10a), originating from colorectal adenoma carcinoma; COLO 829 cells (Figure 10b), isolated from melanoma; and MDA-MB-231 cells (Figure 10c) derived from metastatic phase of mammary/breast cancer.
(§1) Lactate generation, growth yield and survival under normal and inhibitory conditions of three different tumorigenic cells lines were determined in more detailed measurements. […] Cytotoxicity was measured by the Lactate dehydrogenase (LDH) kit (Roche).
(§2) Therefore, the influence of selected inhibitors was assessed by sequential re-insertion of low concentrations of inhibitors at indicated time points. The inhibitors were first added to the medium 8 hours after the inoculation followed by periodically additions at 24-hour intervals (marked by arrows).

COLO 829 cells [2] = assay: lactate excretion by COLO 829 cells
Method: (§3) Preliminary in vivo tests were run by measuring lactate production by three different tumorigenic cell lines. Again, 100 µM concentrations of tested compounds have been added to the medium. For the experiment, the following tumorigenic cells lines originating from different tumours were tested: Caco-2 cells (Figure 10a), originating from colorectal adenoma carcinoma; COLO 829 cells (Figure 10b), isolated from melanoma; and MDA-MB-231 cells (Figure 10c) derived from metastatic phase of mammary/breast cancer. All adherent cell lines were grown in the RPMI 1640 GlutaMAX substrate (Thermo Fisher) supplemented with 10% FBS.
On the basis of preliminary results, inhibitors No. 23, 29, 30 and 31 were tested on COLO 829 cells. […] No significant discrepancies of total cell numbers in respect to the control were observed due to the different concentrations of inhibitors in the medium (Figure 13e). The average percent of dead COLO 829 cells in the control and in the presence of different concentrations of inhibitors were as follows: inh. 23 (9,23±0,6%), inh. 29 (9,31±0,73%), inh. 30 (8,27±0,49%), inh. 31 (8,26±0,38%). Additionally, cytotoxicity of inh. 3 (5,01±1,08%) and 9 (3,65±0,78%) for COLO 829 cells were also determined. No dose dependent decrease of survival was observed by any inhibitor.
as §2, with “A decrease in inhibitory effectiveness of some compounds was observed after certain period of time (Example 11). […] Therefore,” for “Therefore,”
No significant cytostatic (Figure 16f) of cytotoxic effect of inhibitors could be detected after 92 hours of incubation despite of sequential addition of various concentrations of inhibitors. The following average percentages of dead cells were perceived in the medium without and media with inh. 3 (1,95±0,15%) inh. 9 (1,70±0,14%), inh. 23 (2,40±0,09%), inh. 29 (1,66±0,25%) and inh. 30 (1,38±0,18%). No detrimental effects of increased inhibitors concentrations on cell deaths have been observed.

MDA-MB-231 cells [3] = assay: lactate excretion by MDA-MB-231 cells; conditions: single addition, different concentrations
Method: as §3
(§4) Inhibitors No. 23, 29, 30 and 31 were tested for preventing lactate generation by the MDA-MB-231 cells. […] No significant discrepancies of total cell numbers were observed (Figure 14e) due to the different concentrations of inhibitors in the medium. […] The average percent of dead MDA-MB-231 cells in the control and in the presence of different concentrations of inhibitors were as follows: inh. 23 (2,98±0,2%), inh. 29 (3,37±0,39%), inh. 30 (3,4±0,21%), inh. 31 (6,87±0,44%). Additionally, cytotoxicity of inh. 3 (7,2±0,47%) and 9 (6,59±0,29%) for MDA-MB-231 cells were also determined. No dose dependent decrease of survival was observed by any inhibitor.
as §2, with “A decrease in inhibitory effectiveness of some compounds was observed after certain period of time (Example 11). […] Therefore,” for “Therefore,”
(§5) In MDA-MB-231 calls similar results to those found in Caco-2 cells were observed. […] No significant cytostatic (Figure 17f) or cytotoxic effect of inhibitors could be detected after 92 hours of incubation despite of sequential addition of various concentrations of inhibitors. The following average percentages of dead cells were perceived in the medium without and with inh. 3 (2,05±0,18%), inh. 9 (1,85±0,05%), inh. 23 (2,20±0,15%), inh. 29 (1,54±0,16%) and inh. 30 (2,00±0,18%). No detrimental effects of increased inhibitors concentrations on cell deaths have been observed.

Caco-2 cells [4] = assay: cytotoxicity in Caco-2 cells (lactate dehydrogenase (LDH) kit)
Method: as §1

COLO 829 cells [5] = assay: cytotoxicity in COLO 829 cells (LDH kit)
Method: as §1

MDA-MB-231 cells [6] = assay: cytotoxicity in MDA-MB-231 cells (LDH kit)
Method: as §1
Inhibitors No. 23, 29, 30 and 31 were tested for preventing lactate generation by the MDA-MB-231 cells.

Caco-2 cells [7] = assay: total cell numbers of Caco-2 cells at end of incubation; conditions: single addition, end of incubation (92 hours)
Method: as §1

MDA-MB-231 cells [8] = assay: total cell numbers of MDA-MB-231 cells at end of incubation; conditions: single addition, different concentrations
Method: as §4, §5

[9] = sequential addition at 24-hour intervals, 92 hours, average over medium without and with inhibitor
[10] = single addition, average over control and different concentrations of inhibitor

O=C(CCS(=O)(=O)c1ccc(Cl)cc1)Nc1nnc(-c2ccno2)o1 [Inhibitor No. 29, 3-(4-chlorophenyl)sulfonyl-N-(5-isoxazol-5-yl-1,3,4-oxadiazol-2-yl)propanamide]
lactate generation by Caco-2 cells (Caco-2 cells [1]): effectively reduced the lactate accumulation in the medium in a dose dependent manner | lactate formation in COLO 829 cells, sequential re-insertion (COLO 829 cells [2]; inhibitor added 8 hours after inoculation, then at 24-hour intervals, low concentrations (from 10 µM)): slightly weaker inhibitions | lactate excretion by COLO 829 cells (COLO 829 cells [2]; single addition, different concentrations): strongest reductions of lactate excretion | lactate excretion by MDA-MB-231 cells (MDA-MB-231 cells [3]): dose dependent inhibition of lactate excretion | average percentages of dead cells, Caco-2, sequential re-insertion (Caco-2 cells [4]; [9]): 4,57±0,04% | average percent of dead cells, Caco-2 (Caco-2 cells [4]; [10]): 4,95±0,27% | average percentages of dead cells, COLO 829, sequential re-insertion (COLO 829 cells [5]; [9]): 1,66±0,25% | average percent of dead COLO 829 cells (COLO 829 cells [5]; [10]): 9,31±0,73% | average percentages of dead cells, MDA-MB-231, sequential re-insertion (MDA-MB-231 cells [6]; [9]): 1,54±0,16% | average percent of dead MDA-MB-231 cells (MDA-MB-231 cells [6]; [10]): 3,37±0,39% | total cell numbers, Caco-2 (Caco-2 cells [7]): minor dose dependent reductions in total cell numbers | total cell numbers, MDA-MB-231 (MDA-MB-231 cells [8]): dose dependent decrease of cell numbers
